Melting point data for 62 compounds are collected here from a melting point compilation (Tetko et al.; mined from patent text by program, amines drawn as free bases though some values may be those of a salt).

In general, melting point refers to the temperature, or range, at which the solid turns liquid. `CC(C)(C)c1ccc(C(=O)c2ccc(C(C)(C)C)cc2)cc1` returned a melting point of 132 to 136 °C. `O=C1CCC(c2ccc3[nH]c(-c4ccccc4Cl)cc3c2)=NN1` displayed a melting point of 236 to 239 °C. The compound `CC(C)(C)c1cc(C(=O)NCCOC(=O)c2cc(C(C)(C)C)c(O)c(C(C)(C)C)c2)cc(C(C)(C)C)c1O` gave a melting point of 185 to 187 °C. `COc1cc(C)cc(C(=O)O)c1C12OC1C(=O)c1c(O)cccc1C2=O` (configuration not stated) registered a melting point of 267 to 268 °C. In the case of `CC(=O)OC1CSC(Sc2ccc(S(=O)(=O)c3ccccc3)cc2)C(OC(C)=O)C1OC(C)=O` (configuration not stated), the melting point was 159 °C. The compound `Cc1cccc2[nH]c(-c3ccccc3F)nc12` returned a melting point of 161 to 162 °C. In the case of `CC(C)(C)N=NC1(C(N)=O)CCCCC1` it was 86 to 92 °C; in that of `Cc1nc2ccccc2n1-c1ccc(C(=O)O)cc1`, 299 to 300 °C; in that of `COc1cc(Nc2nccc(-c3cccc(NC(=O)c4cc(C)on4)c3)n2)cc(OC)c1OC`, 173 to 175 °C. The same measure for `CC1(C(=O)c2c[nH]c3ncc(-c4cccs4)nc23)CCCCC1`: 224 to 225 °C; for `Cc1ncn(-c2cc(C(Cl)(Cl)Cl)c3cc(C(Cl)(Cl)Cl)ccc3n2)n1`: 169 to 170 °C.

As to `CCOC(=O)CNc1c(C)cc(C(O)(C(F)(F)Cl)C(F)(F)Cl)cc1C`, the melting point fell in the range of 102 to 104 °C.

Regarding `Cc1cnc2nc(NS(=O)(=O)c3ccccc3Cl)nn2c1`, the melting point is 236 to 239 °C. `Cc1c(CN(O)Cc2ccccc2)c(C)c(CN(O)Cc2ccccc2)c(C)c1CN(O)Cc1ccccc1` came in with a melting point of 193 to 195 °C. The same measure for `CS(=O)(=O)c1ccc(-n2cnc3ccc(-c4nnc(CC(F)(F)F)o4)cc32)cc1`: 229 to 232 °C; for `CCc1c(N)c(C(N)=O)nn1C1CN(C(C)C)C1`: 195 to 200 °C.

`Nc1sc2c(c1C(=O)c1cccc3ccccc13)CCC2` had a melting point of 255 to 257 °C. In turn, `Cc1ncn(-c2ccc(N)cc2F)n1` showed a melting point of 122 to 125 °C. Consider `CC(C)CCS(=O)(=O)NC(=O)CCc1cc(C2CC2)nn1Cc1ccc(C(F)(F)F)cc1Cl`, for which the melting point was in the range of 160 to 162 °C. As for `CC(C)(C)c1cc2c(c(C(C)(C)C)c1)OC(=O)C2=O`, the melting point was in the range of 165 to 168 °C. As for `Cc1cc(C2=CCN=C(CCCC(O)c3ccc(F)cc3)C2)on1` (configuration not stated), the melting point was in the range of 116 to 119 °C. For `CCc1cnc(-c2ccc(N=C=S)cc2)nc1`, the melting point stood at 114 °C.

Take `O=C(OC1CCCCO1)C(c1ccccc1)(c1ccccc1)c1ccccc1` (configuration not stated): the melting point was determined as 115 °C. For `Cc1cccc(COc2ccc(-c3ccc(C(=O)NC(Cc4ccccc4)C(=O)O)cc3)cc2)c1` (configuration not stated), the melting point came to 204 °C. The same measure for `CC[C@H](C(N)=O)N1CCCC1=O`: 115 to 117 °C; for `COCCCNC(=O)c1ccc(C(=O)N2CCN(c3ncccc3NC(C)C)CC2)nc1`: 95 to 96 °C; for `CC(C)(C(=O)C(Oc1ccc(Cl)cc1Cl)n1cncn1)C(Cl)Cl` (configuration not stated): 120 to 121 °C. For the compound `CCOC=Cc1nc2c(=O)n(Cc3ccccc3)cnc2n1Cc1ccccc1`, the melting point lay within 167 to 168 °C. Compound `CCCCCC(C=CC1C(O[Si](C)(C)C(C)(C)C)CC2Cc3c(cccc3OC(=O)c3ccccc3)CC21)O[Si](C)(C)C(C)(C)C` (configuration not stated) displayed a melting point of 140 to 141 °C. As for `CNc1nc(NC)nc(NC)n1`, the melting point worked out at 133 °C. As to `COc1ccc2sc(C(N)=O)c(S(=O)(=O)C(C)C)c2c1`, the melting point lay in the range of 169 to 170 °C. Take `O=[N+]([O-])c1ccc2c(c1)C(O)Cc1ccc(F)cc1S2` (configuration not stated): the melting point fell in the range of 149 to 151 °C. On to `CCOCc1nc2c(N)nc3cc(-c4cncc(CO)c4)ccc3c2n1CC(C)C`, for which the melting point was 211 to 212 °C. Regarding `COCCNS(=O)(=O)c1cccc(Nc2nccc(-c3sc(C)nc3C)n2)c1`, the melting point was in the range of 197 to 198 °C. `[N-]=[N+]=N[C@@H]1CN2C(=O)N(c3cc(Cl)nc(Cl)c3)C(=O)[C@@]2(Cc2ccc(OC(F)(F)F)cc2)C1` showed a melting point of 140 °C. In the case of `CCOC(=O)c1ccc(CCN(C)CCCC(C#N)(C(=O)OC)c2ccc(OC)c(OC)c2)cc1` (configuration not stated) it was 88 to 89 °C; in that of `CC(C)Cn1nc(-c2ccc(C(F)(F)F)cc2)cc(COS(C)(=O)=O)c1=O`, 123 to 124 °C; in that of `O=C(Nc1ccc2nc(CN3CCCC3)ccc2c1)c1ccc(-c2ccc(F)cc2)cc1`, 190 to 193 °C. Take `O=C(O)c1ccc2c(CCCCN3CC=C(c4ccccc4)CC3)c[nH]c2c1`: the melting point worked out at 268 °C.

As for `CCn1nc(C(C)(C)C)c2c1C(=S)NCC(c1ccccc1)=N2`, the melting point amounted to 230 °C. In the case of `CN(C)C1(c2ccccc2)CCC(=CC(=O)N2CCC(c3c[nH]c4ccccc34)C2)CC1` (configuration not stated) it was 94 to 97 °C. Compound `Ic1ccc(CCc2ccc(I)cc2)cc1` showed a melting point of 150 to 151 °C. The same measure for `CC(C)CCCC(C)CCOc1cc(CCl)c(OCCC(C)CCCC(C)C)cc1CCl` (configuration not stated): 55 °C; for `COC(=O)c1cc(-c2ccc(F)c(C)c2)nn(CC=Cc2ccccc2)c1=O`: 95.9 to 96.7 °C. Regarding `CCOC(=O)c1c(O)c2cccc3c2n(c1=O)CCO3`, the melting point was 160 to 164 °C. Consider `c1ccc(-n2ncc3c2-c2ccccc2C3)cc1`, for which the melting point lay in the range of 119 to 120 °C. `COc1cc(OC)nc(C2OC(=O)c3c(Cl)cccc32)n1` (configuration not stated) came in with a melting point of 148 to 149 °C. The compound `Cc1c(O)c(C)c(Br)c(C)c1Br` yielded a melting point of 144 to 146 °C. `O=C(O)CCNC(=S)Nc1ccc2cn[nH]c2c1` registered a melting point of 175 °C. Compound `COC(=O)c1nc(-c2ccc(Cl)c(OC)c2F)nc(N)c1F` showed a melting point of 200 to 202 °C. In the case of `c1ccc(-c2ccc3nc(C4(c5ccc6nccnc6c5)N=c5ccccc5=N4)[nH]c3c2)cc1` it was 235 °C; in that of `Cc1cc2c(cc1C(C)SCC(N)=O)OCO2` (configuration not stated), 121 to 122 °C; in that of `CC(=O)OC1C(NC(=O)Cc2cccc3c2Cc2ccccc2-3)C(CO)OC1n1cnc2c(Cl)ncnc21` (configuration not stated), 196 to 197 °C. `CC(c1ccc(Cl)cc1Cl)n1nc(C(=O)O)cc1-c1ccc(Cl)cc1` (configuration not stated) came in with a melting point of 80 °C.

In the case of `CC(=O)N1c2ccc([N+](=O)[O-])cc2CC1C(C)(C)C` (configuration not stated), the melting point was determined as 99 °C.

Take `COc1ccc(Nc2nc(NCCN(C)C)nc(NC3CCCCCC3)n2)cc1F`: the melting point is 73 to 76 °C. `O=C(O)Cc1cccc(NC(=O)NCC(=O)N2[C@@H](c3cccc(O)c3)CC[C@H]2c2ccccc2)c1` (racemic) registered a melting point of 166 °C. In the case of `CN(CC[C@H]1CC[C@H](C(=O)O)CC1)C(=O)OC(C)(C)C` it was 212 to 214 °C; in that of `CC1(C)CC(=O)C=C(Nc2ccccc2Cl)C1`, 150 to 152 °C. As to `CCn1c(-c2ccccc2)c(C2=CCC(C(=O)O)CC2)c2ccccc21` (configuration not stated), the melting point lay in the range of 147 to 150 °C. As for `CCn1ncc2c(NC)c3c(nc21)C(=NC)c1ccccc1CC3`, the melting point lay in the range of 233 to 235 °C. The same measure for `CCCCCC(=O)NC[C@H](O)CC(=O)NN`: 172 °C.
